Results published in PMC3326641 (Journal of Medicinal Chemistry, 2012).

Biological target: T1, TrxR (rat liver thioredoxin reductase) (Rattus norvegicus, UniProt O89049)
T1 sequence (O89049 1-499): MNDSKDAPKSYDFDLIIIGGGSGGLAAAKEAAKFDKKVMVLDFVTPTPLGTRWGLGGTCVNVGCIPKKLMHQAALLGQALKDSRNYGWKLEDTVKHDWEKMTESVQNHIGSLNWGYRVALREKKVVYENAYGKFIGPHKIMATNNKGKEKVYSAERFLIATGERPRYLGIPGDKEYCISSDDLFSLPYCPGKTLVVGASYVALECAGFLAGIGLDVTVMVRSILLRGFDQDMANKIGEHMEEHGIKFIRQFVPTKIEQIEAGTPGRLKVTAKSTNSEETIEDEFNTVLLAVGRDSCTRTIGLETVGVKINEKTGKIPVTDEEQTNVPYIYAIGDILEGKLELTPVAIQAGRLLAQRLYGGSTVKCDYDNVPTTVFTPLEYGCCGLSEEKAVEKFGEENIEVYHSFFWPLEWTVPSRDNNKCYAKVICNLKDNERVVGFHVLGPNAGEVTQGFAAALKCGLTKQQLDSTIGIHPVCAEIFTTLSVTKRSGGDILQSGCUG
Assay: DTNB reduction, absorbance at […] nm
Format: biochemical

SMILES: CC(C)(C)OC(=O)n1ccc2c[c]([Au-][P+](C3CCCCC3)(C3CCCCC3)C3CCCCC3)ccc21 [compound 4, [5-{Tricyclohexylphosphine gold(I)}-tert-butyl 1H-indole-1-carboxylate]]
- inhibition at 40 µM: 39%
